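Growth conditions: 96-well plates. Treatment: test compound, 48 hours, 5 concentrations. Analysis: linear interpolation between bracketing concentrations; unreached endpoints set to highest concentration. At the GI50, growth is halved.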 The source made the active and inactive calls. Rule as the data show it: active = GI50 up to about 1.1 µM and inactive = higher.
Key:
Assay in all cases: inhibition of tumour cell growth, NCI panel, 48 h
[1] = test system: CCRF-CEM
[2] = test system: HCC 2998
[3] = test system: HCT-15
[4] = test system: HT-29
[5] = test system: KM12
[6] = test system: MDA-N
[7] = test system: Malme-3M
[8] = test system: NCI-H226
[9] = test system: NCI/ADR-RES
[10] = test system: RXF 393
[11] = test system: SK-MEL-28
[12] = test system: SK-MEL-5
[13] = test system: SN12C
[14] = test system: T47D
[15] = test system: TK-10
[16] = test system: UACC-257
[17] = test system: UACC-62
[18] = test system: A498
[19] = test system: RPMI-8226

Nc1nc(Cl)cc(NCC2(CO)CC=CC2)n1
GI50 [1]: > 100 µM (inactive) | GI50 [2]: > 100 µM (inactive) | GI50 [3]: > 100 µM | GI50 [4]: > 100 µM (inactive) | GI50 [5]: > 100 µM (inactive) | GI50 [6]: > 100 µM (inactive) | GI50 [7]: > 100 µM (inactive) | GI50 [8]: > 100 µM (inactive) | GI50 [9]: > 100 µM (inactive) | GI50 [10]: 33.1 µM (inactive) | GI50 [11]: > 100 µM (inactive) | GI50 [12]: 46.3 µM (inactive) | GI50 [13]: > 100 µM (inactive) | GI50 [14]: 47.1 µM (inactive) | GI50 [15]: > 100 µM (inactive) | GI50 [16]: > 100 µM (inactive) | GI50 [17]: > 100 µM (inactive)

C1=CC2(C=CC13O[C@H](C1CCCCC1)[C@@H](C1CCCCC1)O3)O[C@H](C1CCCCC1)[C@@H](C1CCCCC1)O2
GI50 [18]: > 50 µM (inactive) | GI50 [3]: > 50 µM | GI50 [4]: > 50 µM (inactive) | GI50 [5]: > 50 µM (inactive) | GI50 [6]: > 50 µM (inactive) | GI50 [7]: > 50 µM (inactive) | GI50 [8]: > 50 µM (inactive) | GI50 [9]: > 50 µM (inactive) | GI50 [19]: 23.2 µM (inactive) | GI50 [10]: > 50 µM (inactive) | GI50 [11]: > 50 µM (inactive) | GI50 [12]: > 50 µM (inactive) | GI50 [13]: > 50 µM (inactive) | GI50 [14]: > 50 µM (inactive) | GI50 [15]: > 50 µM (inactive) | GI50 [16]: > 50 µM (inactive) | GI50 [17]: > 50 µM (inactive)

O=C(NNc1ccnc2cc(Cl)ccc12)/C(=C\c1ccccc1Cl)NC(=O)c1ccccc1
GI50 [1]: 29.8 µM (inactive) | GI50 [2]: 60 µM (inactive) | GI50 [3]: 48.4 µM | GI50 [4]: 47.8 µM (inactive) | GI50 [5]: 20.5 µM (inactive) | GI50 [6]: 37.3 µM (inactive) | GI50 [7]: 52.6 µM (inactive) | GI50 [8]: 23.2 µM (inactive) | GI50 [9]: 24.9 µM (inactive) | GI50 [19]: 29.2 µM (inactive) | GI50 [10]: 27.2 µM (inactive) | GI50 [11]: > 100 µM (inactive) | GI50 [12]: 23.8 µM (inactive) | GI50 [13]: 38.1 µM (inactive) | GI50 [14]: 32.2 µM (inactive) | GI50 [15]: 66.1 µM (inactive) | GI50 [16]: 34.1 µM (inactive) | GI50 [17]: 21 µM (inactive)

O=C(NNC(=S)Nc1ccccc1)c1csc(NC(=S)NC2CCCCC2)n1
GI50 [18]: > 100 µM (inactive) | GI50 [1]: 54.8 µM (inactive) | GI50 [2]: 10.5 µM (inactive) | GI50 [3]: 33.3 µM | GI50 [4]: 15.6 µM (inactive) | GI50 [5]: > 100 µM (inactive) | GI50 [6]: 50.8 µM (inactive) | GI50 [7]: > 100 µM (inactive) | GI50 [8]: 9.59 µM (inactive) | GI50 [9]: 85.7 µM (inactive) | GI50 [19]: 28.8 µM (inactive) | GI50 [12]: 17.4 µM (inactive) | GI50 [13]: 91.4 µM (inactive) | GI50 [14]: 36.9 µM (inactive) | GI50 [15]: > 100 µM (inactive) | GI50 [16]: 29 µM (inactive) | GI50 [17]: 38.9 µM (inactive)

CCNC(=S)N/N=C/c1cc([N+](=O)[O-])ccc1O
GI50 [18]: 13.2 µM (inactive) | GI50 [1]: 4.47 µM (inactive) | GI50 [2]: 16.2 µM (inactive) | GI50 [3]: 11.6 µM | GI50 [4]: 41.8 µM (inactive) | GI50 [5]: 23.8 µM (inactive) | GI50 [6]: 46.5 µM (inactive) | GI50 [7]: 26.5 µM (inactive) | GI50 [8]: 27.9 µM (inactive) | GI50 [9]: 21.8 µM (inactive) | GI50 [10]: 62.2 µM (inactive) | GI50 [11]: 51.8 µM (inactive) | GI50 [12]: 10.9 µM (inactive) | GI50 [13]: 31.5 µM (inactive) | GI50 [14]: 19.9 µM (inactive) | GI50 [15]: 16.2 µM (inactive) | GI50 [16]: 24.6 µM (inactive) | GI50 [17]: 17.5 µM (inactive)

COc1cc2c(cc1OC)C1CCc3ccccc3CN1CC2 (stereo unspecified)
GI50 [18]: > 100 µM (inactive) | GI50 [1]: > 100 µM (inactive) | GI50 [2]: > 100 µM (inactive) | GI50 [3]: > 100 µM | GI50 [4]: > 100 µM (inactive) | GI50 [5]: > 100 µM (inactive) | GI50 [6]: > 100 µM (inactive) | GI50 [7]: > 100 µM (inactive) | GI50 [8]: > 100 µM (inactive) | GI50 [9]: > 100 µM (inactive) | GI50 [10]: > 100 µM (inactive) | GI50 [11]: > 100 µM (inactive) | GI50 [12]: > 100 µM (inactive) | GI50 [13]: > 100 µM (inactive) | GI50 [14]: > 100 µM (inactive) | GI50 [15]: > 100 µM (inactive) | GI50 [16]: > 100 µM (inactive) | GI50 [17]: > 100 µM (inactive)

COC(=O)[C@H](Cc1ccccc1)NC(=O)CCCCCCC(=O)NO
GI50 [1]: 2.67 µM (inactive) | GI50 [2]: 16.1 µM (inactive) | GI50 [3]: 56.4 µM | GI50 [4]: 17.6 µM (inactive) | GI50 [5]: 28.8 µM (inactive) | GI50 [6]: 19 µM (inactive) | GI50 [7]: 2.65 µM (inactive) | GI50 [8]: 75.3 µM (inactive) | GI50 [9]: 23.1 µM (inactive) | GI50 [19]: 4.62 µM (inactive) | GI50 [10]: 5.05 µM (inactive) | GI50 [11]: > 100 µM (inactive) | GI50 [12]: 8.91 µM (inactive) | GI50 [13]: > 100 µM (inactive) | GI50 [14]: 0.605 µM (active) | GI50 [15]: 13.8 µM (inactive) | GI50 [16]: 10.1 µM (inactive) | GI50 [17]: 11.5 µM (inactive)

CCc1oc2ccccc2c1C(=O)c1cc(Br)c(O)c(Br)c1 [BENZBROMARONE]
GI50 [18]: 20.5 µM (inactive) | GI50 [1]: 26.4 µM (inactive) | GI50 [3]: 27.6 µM | GI50 [4]: 30.3 µM (inactive) | GI50 [5]: 20.7 µM (inactive) | GI50 [6]: 30.2 µM (inactive) | GI50 [7]: 19.1 µM (inactive) | GI50 [8]: 22.1 µM (inactive) | GI50 [9]: 31.6 µM (inactive) | GI50 [19]: 29 µM (inactive) | GI50 [10]: 15.3 µM (inactive) | GI50 [11]: 41.4 µM (inactive) | GI50 [12]: 17.4 µM (inactive) | GI50 [13]: 26 µM (inactive) | GI50 [14]: 19.9 µM (inactive) | GI50 [15]: 24.7 µM (inactive) | GI50 [16]: 19.3 µM (inactive) | GI50 [17]: 16.9 µM (inactive)

From ChEMBL document CHEMBL1201862, “PubChem BioAssay data set” (2004)
